Experimental data taken from publication PMC12669672, “Structural insights into selective and dual antagonism of EP2 and EP4 prostaglandin receptors” (The EMBO Journal, 2025).
“And” between values parts separate entries of the source, which are not always exact repeats. Equal values may be shown once.

Columns and labels:
Type in all cases: cell-based
EP2 W186A = target: T1, EP2 W186A (Homo sapiens, UniProt P43116, W186A); test: GloSensor cAMP assay, antagonism of PGE2-induced cAMP; settings: 1 h, single experiments 1st-3rd, Fig. 3D, read-out: % cAMP activity (normalized to WT)
T1 construct: The full-length EP2 or EP4 was cloned into the pcDNA3.1 vector; FLAG (N); expressed in transfected cells; host or cells: AD293 cells
T1 sequence (P43116 whole entry W186A): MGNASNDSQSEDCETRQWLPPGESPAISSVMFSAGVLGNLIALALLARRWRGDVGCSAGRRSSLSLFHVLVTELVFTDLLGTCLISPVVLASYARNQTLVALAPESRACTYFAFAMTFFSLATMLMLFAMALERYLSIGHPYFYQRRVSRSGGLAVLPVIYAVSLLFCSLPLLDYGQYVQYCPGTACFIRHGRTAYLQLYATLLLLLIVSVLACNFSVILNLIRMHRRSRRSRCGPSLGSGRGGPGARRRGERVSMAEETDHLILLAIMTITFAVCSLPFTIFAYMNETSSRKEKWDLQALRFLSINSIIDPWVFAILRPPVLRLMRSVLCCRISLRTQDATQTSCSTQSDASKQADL
Outline: (§1)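 Read-out is GloSensor luminescence from AD293 cells co-expressing FLAG-tagged EP2 variant and GloSensor22F biosensor, transfected at a 1:1 plasmid ratio. Cells were plated at 4000 per well in CO2-independent medium containing 2% cAMP reagent, incubated 1 h at 37 °C, then read.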

EP2 M116A = target: T2, EP2 M116A (Homo sapiens, UniProt P43116, M116A); test: as above; settings: 1 h, single experiments 1st-3rd, Fig. 3D, read-out: % cAMP activity (normalized to WT)
T2 construct: The full-length EP2 or EP4 was cloned into the pcDNA3.1 vector; FLAG (N); expressed in transfected cells; host or cells: AD293 cells
T2 sequence (P43116 whole entry M116A): as the sequence (P43116 whole entry W186A) above, with M116A, A186W counted along it
Outline: as §1

EP2 S308A = target: T3, EP2 S308A (Homo sapiens, UniProt P43116, S308A); test: as above; settings: single experiments 1st-3rd
T3 construct: The full-length EP2 or EP4 was cloned into the pcDNA3.1 vector; FLAG (N); expressed in transfected cells; host or cells: AD293 cells
T3 sequence (P43116 whole entry S308A): as the sequence (P43116 whole entry W186A) above, with A186W, S308A counted along it
Outline: as §1

EP2 T82A = target: T4, EP2 T82A (Homo sapiens, UniProt P43116, T82A); test: as above; settings: 1 h, single experiments 1st-3rd, Fig. 3D, read-out: % cAMP activity (normalized to WT)
T4 construct: The full-length EP2 or EP4 was cloned into the pcDNA3.1 vector; FLAG (N); expressed in transfected cells; host or cells: AD293 cells
T4 sequence (P43116 whole entry T82A): as the sequence (P43116 whole entry W186A) above, with T82A, A186W counted along it
Outline: as §1

EP2 S305A = target: T5, EP2 S305A (Homo sapiens, UniProt P43116, S305A); test: as above; settings: single experiments 1st-3rd
T5 construct: The full-length EP2 or EP4 was cloned into the pcDNA3.1 vector; FLAG (N); expressed in transfected cells; host or cells: AD293 cells
T5 sequence (P43116 whole entry S305A): as the sequence (P43116 whole entry W186A) above, with A186W, S305A counted along it
Outline: as §1

EP2 S86A = target: T6, EP2 S86A (Homo sapiens, UniProt P43116, S86A); test: as above; settings: single experiments 1st-3rd
T6 construct: The full-length EP2 or EP4 was cloned into the pcDNA3.1 vector; FLAG (N); expressed in transfected cells; host or cells: AD293 cells
T6 sequence (P43116 whole entry S86A): as the sequence (P43116 whole entry W186A) above, with S86A, A186W counted along it
Outline: as §1

EP2-I85V = target: T7, EP2-I85V (Homo sapiens, UniProt P43116, I85V); test: GloSensor cAMP assay, antagonism of PGE2-induced cAMP, chimeric studies; settings: single experiments 1st-3rd
T7 construct: The full-length EP2 or EP4 was cloned into the pcDNA3.1 vector; FLAG (N); expressed in transfected cells; host or cells: AD293 cells
T7 sequence (P43116 whole entry I85V): as the sequence (P43116 whole entry W186A) above, with I85V, A186W counted along it
Protocol: (§2) The full-length EP2 or EP4 was cloned into the pcDNA3.1 vector (Invitrogen), incorporating an N-terminal FLAG tag. AD293 cells were seeded in six-well plates containing DMEM supplemented with 10% dialyzed FBS 1 day prior to transfection. Following overnight growth, cells were transfected with a 1:1 ratio of receptor construct and GloSensor22F cAMP biosensor (Promega) plasmids.
(§3) Twenty-four hours post-transfection, the cells were transferred to CO2-independent media containing 2% GloSensor cAMP Reagent (Promega) and distributed into 384-well assay plates at a density of 4000 cells per well in 10 μL. […] The plates were then incubated at 37 °C for an additional hour before luminescence measurements were taken using an EnVision plate reader.
(§4) Data analysis was performed using GraphPad Prism software v8.0.1. A nonlinear regression analysis, employing a sigmoidal dose–response model, was conducted to determine the Emax values and half-maximum inhibitory concentrations (IC50) for each compound tested.

EP2-M116L = target: T8, EP2-M116L (Homo sapiens, UniProt P43116, M116L); test: as above; settings: single experiments 1st-3rd
T8 construct: The full-length EP2 or EP4 was cloned into the pcDNA3.1 vector; FLAG (N); expressed in transfected cells; host or cells: AD293 cells
T8 sequence (P43116 whole entry M116L): as the sequence (P43116 whole entry W186A) above, with M116L, A186W counted along it
Protocol: as §2, §3, §4

EP2-L301I = target: T9, EP2-L301I (Homo sapiens, UniProt P43116, L301I); test: as above; settings: single experiments 1st-3rd
T9 construct: The full-length EP2 or EP4 was cloned into the pcDNA3.1 vector; FLAG (N); expressed in transfected cells; host or cells: AD293 cells
T9 sequence (P43116 whole entry L301I): as the sequence (P43116 whole entry W186A) above, with A186W, L301I counted along it
Protocol: as §2, §3, §4

[1] = 1 h, PF-04418948 log([M]) -7, Fig. 3D, read-out: % cAMP activity (normalized to WT)
[2] = 1 h, PF-04418948 log([M]) -8, Fig. 3D, read-out: % cAMP activity (normalized to WT)
[3] = 1 h, PF-04418948 log([M]) -9, Fig. 3D, read-out: % cAMP activity (normalized to WT)
[4] = 1 h, PF-04418948 log([M]) -10, Fig. 3D, read-out: % cAMP activity (normalized to WT)
[5] = 1 h, PF-04418948 log([M]) -11, Fig. 3D, read-out: % cAMP activity (normalized to WT)
[6] = 1 h, PF-04418948 log([M]) -12, Fig. 3D, read-out: % cAMP activity (normalized to WT)
[7] = 1 h, ligand log([M]) -5, Fig. S7B, read-out: % cAMP activity (normalized to WT)
[8] = 1 h, ligand log([M]) -6, Fig. S7B, read-out: % cAMP activity (normalized to WT)
[9] = 1 h, ligand log([M]) -7, Fig. S7B, read-out: % cAMP activity (normalized to WT)
[10] = 1 h, ligand log([M]) -8, Fig. S7B, read-out: % cAMP activity (normalized to WT)
[11] = 1 h, ligand log([M]) -9, Fig. S7B, read-out: % cAMP activity (normalized to WT)
[12] = 1 h, ligand log([M]) -10, Fig. S7B, read-out: % cAMP activity (normalized to WT)
[13] = 1 h, ligand log([M]) -12, Fig. S7B, read-out: % cAMP activity (normalized to WT)

- remaining activity at 1 µM (EP2 W186A; PF-04418948 log([M]) -6): 7.94%
- remaining activity at 0.1 µM (EP2 W186A; PF-04418948 log([M]) -7): 18%
- remaining activity at 0.01 µM (EP2 W186A; PF-04418948 log([M]) -8): 24.6%
- remaining activity at 0.001 µM (EP2 W186A; PF-04418948 log([M]) -9): 23.9%
- remaining activity at 0.0001 µM (EP2 W186A; PF-04418948 log([M]) -10): 24.4%
- remaining activity at 10 pM (EP2 W186A; PF-04418948 log([M]) -11): 29.3%
- remaining activity at 1 pM (EP2 W186A; PF-04418948 log([M]) -12): 27.9%
- remaining activity at 1 µM (EP2 M116A; PF-04418948 log([M]) -6): 5.4%
- remaining activity at 0.1 µM (EP2 M116A; PF-04418948 log([M]) -7): 26.1%
- remaining activity at 0.01 µM (EP2 M116A; PF-04418948 log([M]) -8): 58.4%
- remaining activity at 0.001 µM (EP2 M116A; PF-04418948 log([M]) -9): 56.2%
- remaining activity at 0.0001 µM (EP2 M116A; PF-04418948 log([M]) -10): 64.8%
- remaining activity at 10 pM (EP2 M116A; PF-04418948 log([M]) -11): 75.1%
- remaining activity at 1 pM (EP2 M116A; PF-04418948 log([M]) -12): 77.8%
- remaining activity at 0.1 µM (EP2 S308A; [1]): 27.6%
- remaining activity at 0.01 µM (EP2 S308A; [2]): 78.6%
- remaining activity at 0.001 µM (EP2 S308A; [3]): 89.1%
- remaining activity at 0.0001 µM (EP2 S308A; [4]): 86.2%
- remaining activity at 10 pM (EP2 S308A; [5]): 84.2%
- remaining activity at 1 pM (EP2 S308A; [6]): 83.9%
- cAMP activity (∆pIC50 from EP2 WT) (EP2 S308A; Fig. 3E): -0.810 and -0.830 and -1.090
- remaining activity at 1 µM (EP2 T82A; PF-04418948 log([M]) -6): 9.17%
- remaining activity at 0.1 µM (EP2 T82A; PF-04418948 log([M]) -7): 19.3%
- remaining activity at 0.01 µM (EP2 T82A; PF-04418948 log([M]) -8): 47.4%
- remaining activity at 0.001 µM (EP2 T82A; PF-04418948 log([M]) -9): 55.3%
- remaining activity at 0.1 µM (EP2 S305A; [1]): 22.4%
- remaining activity at 0.01 µM (EP2 S305A; [2]): 45.9%
- remaining activity at 0.0001 µM (EP2 S305A; [4]): 47.9%
- remaining activity at 10 pM (EP2 S305A; [5]): 41.3%
- cAMP activity (∆pIC50 from EP2 WT) (EP2 S305A; Fig. 3E): -1.170 and -1.396 and -1.144
- remaining activity at 0.01 µM (EP2 S86A; [2]): 35%
- remaining activity at 0.001 µM (EP2 S86A; [3]): 61.5%
- remaining activity at 0.0001 µM (EP2 S86A; [4]): 63.4%
- remaining activity at 10 pM (EP2 S86A; [5]): 75.5%
- remaining activity at 1 pM (EP2 S86A; [6]): 72.4%
- cAMP activity (∆pIC50 from EP2 WT) (EP2 S86A; Fig. 3E): 0.200 and 0.410 and 0.340
- remaining activity at 10 µM (EP2-I85V; [7]): 4.76%
- remaining activity at 1 µM (EP2-I85V; [8]): 5.53%
- remaining activity at 0.1 µM (EP2-I85V; [9]): 21.6%
- remaining activity at 0.01 µM (EP2-I85V; [10]): 78.7%
- remaining activity at 0.001 µM (EP2-I85V; [11]): 105%
- remaining activity at 0.0001 µM (EP2-I85V; [12]): 94.6%
- remaining activity at 10 pM (EP2-I85V; 1 h, ligand log([M]) -11, Fig. S7B, read-out: % cAMP activity (normalized to WT)): 103%
- remaining activity at 1 pM (EP2-I85V; [13]): 91.7%
- cAMP activity (∆pIC50 from EP2 WT) (EP2-I85V; Appendix Fig. S7A): -0.301 and -0.398 and -0.280
- remaining activity at 10 µM (EP2-M116L; [7]): 11.8%
- remaining activity at 1 µM (EP2-M116L; [8]): 12%
- remaining activity at 0.1 µM (EP2-M116L; [9]): 36.7%
- remaining activity at 0.01 µM (EP2-M116L; [10]): 98.5%
- remaining activity at 0.001 µM (EP2-M116L; [11]): 132%
- remaining activity at 0.0001 µM (EP2-M116L; [12]): 123%
- remaining activity at 1 pM (EP2-M116L; [13]): 116%
- cAMP activity (∆pIC50 from EP2 WT) (EP2-M116L; Appendix Fig. S7A): -0.408 and -0.463 and -0.307
- remaining activity at 10 µM (EP2-L301I; [7]): 20%
- remaining activity at 1 µM (EP2-L301I; [8]): 51.7%
- remaining activity at 0.1 µM (EP2-L301I; [9]): 121%
- remaining activity at 0.01 µM (EP2-L301I; [10]): 112%
- remaining activity at 0.001 µM (EP2-L301I; [11]): 117%
- remaining activity at 0.0001 µM (EP2-L301I; [12]): 113%
- remaining activity at 1 pM (EP2-L301I; [13]): 108%
- cAMP activity (∆pIC50 from EP2 WT) (EP2-L301I; Appendix Fig. S7A): -1.743 and -1.549 and -1.608
SMILES: COc1ccc2cc(OCC3(C(=O)O)CN(C(=O)c4ccc(F)cc4)C3)ccc2c1 [PF-04418948]
